Entries after “also recorded” stand apart in the source; their conditions may differ. Read-outs that look alike come from different tables or passages of the source.
Columns and labels:
[1] = system: acetic acid-induced bladder irritation; conditions: cat, S-norfluoxetine at 3 and 10 mg/kg; cited from earlier work
[2] = system: acetic acid-induced bladder irritation; experiment: Acute cat dilute acetic acid model (cystometry, EUS-EMG); type: in vivo; conditions: for bladder capacity: intravenous, during acetic acid infusion
Description: The ability of bicifadine and milnacipran, exemplary dual acting SNRI-NMDA antagonists, to reverse the reduction in bladder capacity observed following continuous infusion of dilute acetic acid in a cat model was tested. The cat model is a commonly used model for overactive bladder (Thor and Katofiasc, 1995, J. Pharmacol. Exptl. Ther. 274: 1014-24). Female cats (2.2-3 kg B W Harlan) were anesthetized with 4% isoflurane for induction followed by intravenous administration of α-chloralose (68-75 mg/kg). An i.v. catheter was inserted in the radial vein for drug administration. A heparinized (100 units/ml) saline-filled catheter (PE-90) was inserted into the carotid artery to monitor blood pressure. A trachea tube was place to monitor respiration. Via a midline lower abdominal incision, a modified 16 gauge i.v. catheter was inserted into the bladder dome for bladder filling and pressure recording. The abdominal cavity was moistened with saline and closed by covering with a thin plastic sheet in order to maintain access to the bladder for emptying purposes. Fine silver or stainless steel wire electrodes were inserted intraurethrally into the external urethral sphincter (EUS) for electromyography (EMG). Saline was continuously infused at a rate of 0.5-1 ml(s)/min via the bladder catheter for 60 minutes to obtain baseline of lower urinary tract activity (continuous cystometry; CMG). Following the control period, a 0.5% acetic acid (AA) solution in saline was infused into the bladder at the same flow rate to induce bladder irritation. Following 30 minutes of AA infusion, in one example, 1-2 vehicle injections were made at 30 minute intervals to determine vehicle effects, if any. Subsequently, increasing doses of bicifadine (0.1, 0.3, 1, 3 and 10 mg/kg) were administered intravenously at 30-60 minute intervals in order to construct a cumulative dose-response relationship (n=6). At the end of the control saline cystometry period, the vehicle, and 15 minutes following each subsequent treatment, the infusion pump was stopped, the bladder was emptied by fluid withdrawal via the infusion catheter and a single filling cystometrogram was performed at the same flow rate in order to determine changes in bladder capacity caused by the irritation protocol and subsequent drug administration. In a second example, subsequent to AA infusion, a vehicle injection was made to ensure that there were no vehicle effects. 10 mg/kg of milnacipran was then administered intravenously. The external urethral EMG activity, bladder pressure, and volume voided was measured during saline infusion, during AA infusion, and subsequent to milnacipran administration. Data for bicifadine were analyzed by non-parametric ANOVA for repeated measures (Friedman Test) with Dunn's Multiple Comparison test for cumulative dose-response studies. All comparisons were made from the last vehicle measurement. P<0.050 was considered significant.

[3] = system: acetic acid-induced bladder irritation; experiment: Acute rat dilute acetic acid model (cystometry); type: in vivo; conditions: acetic acid infusion compared to vehicle
Source text: The acute models described below provide methods for evaluating active agents in the treatment of overactive bladder. Briefly, the models provide a method for reducing the bladder capacity of test animals by infusing either protamine sulfate and potassium chloride (See, Chuang, Y. C. et al., Urology 61(3): 664-670 (2003)) or dilute acetic acid (See, Thor, K. and Katofiasc., M., 1995, J. Pharmacol. Exptl. Ther., 274:1014-1024; Sasaki, K. et al, J. Urol. 168(3) 1259-1264 (2002)) into the bladder. The infusates cause irritation of the bladder and a reduction in bladder capacity by selectively activating bladder afferent fibers, such as C-fiber afferents. Following irritation of the bladder, an active agent (drug) can be administered and the ability of the active agent to reverse (partially or totally) the reduction in bladder capacity resulting from the irritation, can be determined. Substances which reverse the reduction in bladder capacity can be used in the treatment of overactive bladder. Female rats (250-275 g) were anesthetized with urethane (1.2 g/kg) and a saline-filled jugular catheter (PE-50) was inserted for intravenous drug administration and a heparinized (100 units/ml) saline-filled carotid catheter (PE-50) was inserted for blood pressure monitoring. Via a midline abdominal incision from xyphoid to navel, a PE-50 catheter was inserted into the bladder dome for bladder filling and pressure recording. The abdominal cavity was moistened with saline and closed by covering with a thin plastic sheet in order to maintain access to the bladder for filling cystometry emptying purposes. […] Data for bicifadine were analyzed by non-parametric ANOVA for repeated measures (Friedman Test) with Dunn's Multiple Comparison test for cumulative dose-response studies. […] Additionally, % voiding efficiency was calculated using the following formula: ([…]/(Single Cystometrogram Bladder Capacity))*100 for bicifadine.

[4] = i.v. cumulative doses 0.1-10 mg/kg

Compound: COc1ccc(C(CN(C)C)C2(O)CCCCC2)cc1 (stereo not drawn) [venlafaxine]
- bladder capacity [1]: markedly increases
- urethral sphincter electromyographic (EMG) activity [1]: markedly increases

Compound: CNCCC(Oc1ccccc1SC)c1ccccc1 (stereo not drawn) [thionisoxetine]
- bladder capacity [1]: no effects
- urethral sphincter electromyographic (EMG) activity [1]: no effects

Compound: Cc1ccc(C23CNCC2C3)cc1 (stereo not drawn) [bicifadine]
- increase in bladder capacity ([2]; 1-10 mg/kg i.v. cumulative doses, acetic acid infusion compared to vehicle): 3 fold
- increase in voiding efficiency ([2]; 1-10 mg/kg i.v., acetic acid infusion compared to vehicle): ~10%
- increases in sphincter EMG during bladder filling ([2]; i.v. bicifadine, n=6 experiments): seen in two of the six experiments
- arterial pressure [2, 4]: No significant decrease; also recorded: No significant changes
- heart rate [2, 4]: No significant changes
- contraction frequency (bladder overactivity) during continuous cystometry ([2]; i.v., 1-10 mg/kg, acetic acid infusion): reduced bladder overactivity; also recorded: dose dependent decrease from 1-10 mg/kg but this was not significant
- bladder capacity [2]: significant increase
- sphincter EMG activity during micturition contractions (bladder-sphincter synergy) ([2]; the two experiments with increased sphincter EMG): inhibited during micturition contractions
- increase in bladder capacity ([3]; 1-10 mg/kg i.v. cumulative doses): ~100%
- effect on bladder capacity ([3]; all doses (1, 3, 10 mg/kg i.v.)): had an effect on the bladder capacity
- voiding efficiency ([3]; increasing i.v. doses): not effected; also recorded: basically unaffected

Compound: CNCC[C@H](Oc1cccc2ccccc12)c1cccs1 [duloxetine]
- bladder capacity [1]: markedly increases
- urethral sphincter electromyographic (EMG) activity [1]: markedly increases

Compound: CCN(CC)C(=O)C1(c2ccccc2)CC1CN (stereo not drawn) [milnacipran]
- sphincter EMG activity ([2]; 10 mg/kg i.v., acetic acid infusion): unexpected increase
- increase in bladder capacity ([2]; 10 mg/kg i.v., acetic acid infusion compared to control): ~2 fold
- increase in sphincter EMG activity, Root Mean Square ([2]; 10 mg/kg i.v., during the period following the bladder contraction): 82.5 millivolts
- increase in sphincter EMG activity, Root Mean Square ([2]; 10 mg/kg i.v., during the period of bladder filling): 19.4 millivolts
- bladder capacity [2]: significant increase

Compound: NCC[C@H](Oc1ccc(C(F)(F)F)cc1)c1ccccc1 [S-norfluoxetine]
- bladder capacity [1]: small increases
- urethral sphincter electromyographic (EMG) activity [1]: small increases
